Assays:
[1] = target: T1, COX-1 (Homo sapiens, UniProt P23219); assay: Assay for the COX-1 inhibitory activity using U-937; assay type: cell-based; settings: 1 μM test compound; PGE2 inhibition in U-937 human lymphoma cells vs DMSO control; read-out: Cyclooxygenase (COX) Inhibition (%) COX-1 (1 μM)
T1 construct: host or cells: U-937 human lymphoma cells
Experimental: The collected cells were diluted with HBSS (x1, Hank's balanced salt solution) to a concentration of 1×10^6 cells/ml. 1 ml of the dilute cell solution was placed into each well of 12-well plates. 5 μl of 1 μM solution of a test compound in DMSO and 5 μl of DMSO as a control were added to the wells. The wells were incubated in CO2 incubator at 37° C. for 15 minutes. Separately, 10 mM stock solution of arachidonic acid in ethanol was diluted ten times in ethanol to prepare 1 mM solution of arachidonic acid. Arachidonic acid acts as a substrate. 10 μl of the 1 mM solution of arachidonic acid was added to each well and incubated at CO2 incubator at 37° C. for 30 minutes. The cell solution of each well was placed in a centrifuge test tube and centrifuged at 10,000 rpm at 4° C. for 5 minutes. The concentration of PGE2 in the collected cells and the supernatant was quantified by means of a monoclonal kit (Cayman Chemicals). The percentages of PGE2 inhibition in a group of the test compound-treated cells in relation to a group of the DMSO-treated cells were calculated. Based on the calculated values, the COX-1 inhibitory activities were evaluated.
(§1) % Inhibition=(concentration of PGE2 in test compound-untreated sample−concentration of PGE2 in test compound-treated sample)/(concentration of PGE2 in test compound-untreated sample)×100

[2] = target: T2, COX-2 (Mus musculus, UniProt Q05769); assay: Assay for the COX-2 inhibitory activity using RAW 264.7 cell line; assay type: cell-based; settings: RAW264.7; 10 nM test compound; PGE2 in RAW 264.7 cells treated with interferon γ and LPS, 18 hours; read-out: Cyclooxygenase (COX) Inhibition (%) COX-2 (10 nM)
T2 construct: host or cells: RAW 264.7 cells, aspirin-pretreated, induced with interferon γ and LPS
T2 sequence (Q05769 18-604): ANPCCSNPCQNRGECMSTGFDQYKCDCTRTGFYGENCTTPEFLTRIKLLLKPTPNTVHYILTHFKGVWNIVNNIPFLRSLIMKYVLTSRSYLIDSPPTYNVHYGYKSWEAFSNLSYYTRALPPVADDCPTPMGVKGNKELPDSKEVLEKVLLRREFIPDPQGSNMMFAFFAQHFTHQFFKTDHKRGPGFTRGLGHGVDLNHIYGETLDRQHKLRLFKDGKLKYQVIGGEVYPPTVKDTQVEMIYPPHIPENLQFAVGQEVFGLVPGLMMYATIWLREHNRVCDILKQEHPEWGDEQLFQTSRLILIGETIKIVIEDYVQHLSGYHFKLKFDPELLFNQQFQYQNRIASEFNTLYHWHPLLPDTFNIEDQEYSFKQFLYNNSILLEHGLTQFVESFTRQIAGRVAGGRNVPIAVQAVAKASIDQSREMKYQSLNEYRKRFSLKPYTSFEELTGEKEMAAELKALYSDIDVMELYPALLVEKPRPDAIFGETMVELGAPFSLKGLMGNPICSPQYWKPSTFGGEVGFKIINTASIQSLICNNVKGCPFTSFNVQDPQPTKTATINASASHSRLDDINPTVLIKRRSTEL
Experimental: Each well was treated with 250 μM of aspirin and incubated at 37° C. for 2 hours. After the culture media were replaced with new culture media, the new culture media were treated with a test compound (10 nM) and incubated for 30 minutes. Then, each well was treated with interferon γ (100 units/ml) and lipopolysaccharide (LPS, 100 ng/ml) and incubated for 18 hours. The culture media were transferred to other test tubes. The concentration of PGE2 was quantified by means of the EIA kit (Cayman Chemicals).
as §1

T1 sequence (P23219 24-599): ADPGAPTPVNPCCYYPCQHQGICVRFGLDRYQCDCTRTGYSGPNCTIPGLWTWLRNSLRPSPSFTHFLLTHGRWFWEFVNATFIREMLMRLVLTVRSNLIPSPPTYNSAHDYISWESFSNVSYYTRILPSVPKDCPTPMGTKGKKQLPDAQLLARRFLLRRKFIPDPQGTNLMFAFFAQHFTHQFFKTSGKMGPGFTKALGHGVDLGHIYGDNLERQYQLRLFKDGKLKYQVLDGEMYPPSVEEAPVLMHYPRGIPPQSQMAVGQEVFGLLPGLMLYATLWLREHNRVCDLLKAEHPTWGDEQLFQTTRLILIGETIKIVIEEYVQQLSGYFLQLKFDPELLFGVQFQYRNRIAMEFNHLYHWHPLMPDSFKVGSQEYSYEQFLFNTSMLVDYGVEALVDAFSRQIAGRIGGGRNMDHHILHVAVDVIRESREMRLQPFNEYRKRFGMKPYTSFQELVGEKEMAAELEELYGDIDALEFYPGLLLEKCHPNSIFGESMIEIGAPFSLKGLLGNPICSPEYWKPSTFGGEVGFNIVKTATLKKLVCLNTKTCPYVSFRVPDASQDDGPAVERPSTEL

inhibition at 1 µM [1] [%] | inhibition at 0.01 µM [2] [%] | SMILES
9.8 | 25.7 | Cn1c(-c2nc(C(F)(F)F)nn2-c2ccc(S(C)(=O)=O)cc2)cc2ccccc21 [Example 13, 1-methyl-2-[2-(4-methylsulfonylphenyl)-5-trifluoromethyl-2H-1,2,4-triazole-3-yl]-1H-indole]
26.3 | 5.67 | CS(=O)(=O)c1ccc(-n2nc(C(F)(F)F)nc2-c2cc3ccccc3[nH]2)cc1 [Example 12, 2-[2-(4-methylsulfonylphenyl)-5-trifluoromethyl-2H-1,2,4-triazole-3-yl]-1H-indole]
24.3 | 10.6 | CS(=O)(=O)c1ccc(-n2nc(C(F)(F)F)nc2-c2cc3ccccc3o2)cc1 [Example 11, 5-(benzofuran-2-yl)-1-(4-methylsulfonylphenyl)-3-trifluoromethyl-1H-1,2,4-triazole]

More lines, now with the values behind:

SMILES | inhibition at 1 µM [1] [%] | inhibition at 0.01 µM [2] [%]
CS(=O)(=O)c1ccc(-n2nc(C(F)(F)F)nc2-c2ccc3ccccc3n2)cc1 [Example 15, 2-[2-(4-methylsulfonylphenyl)-5-trifluoromethyl-2H-1,2,4-triazole-3-yl]quinoline] | 22.3 | 5.42
Cn1cc(-c2nc(C(F)(F)F)nn2-c2ccc(S(C)(=O)=O)cc2)c2ccccc21 [Example 14, 1-methyl-3-[2-(4-methylsulfonylphenyl)-5-trifluoromethyl-2H-1,2,4-triazole-3-yl]-1H-indole] | 21.3 | 6.02
CS(=O)(=O)c1ccc(-n2nc(C(F)(F)F)nc2-c2ccc3ccccc3c2)cc1 [Example 10, 1-(4-methylsulfonylphenyl)-5-(naphthalene-2-yl)-3-trifluoromethyl-1H-1,2,4-triazole] | 26.2 | 12.3
NS(=O)(=O)c1ccc(-n2nc(C(F)(F)F)nc2-c2ccc3ccccc3c2)cc1 [Example 16, 4-[5-(naphthalene-2-yl)-3-trifluoromethyl-1,2,4-triazole-1-yl]benzenesulfonamide] | 32.9 | 16.3
CS(=O)(=O)c1ccc(-n2nc(C(F)(F)F)nc2-c2ccc3ccccc3c2)nc1 [Example 17, 5-methanesulfonyl-2-[5-(naphthalene-2-yl)-3-trifluoromethyl-1,2,4-triazole-1-yl]pyridine] | 10.6 | 23.3
